Patent US10851102B2, “Imidazole and triazole containing bicyclic compounds as JAK inhibitors” (THERAVANCE BIOPHARMA R&D IP, LLC, priority 2019, dated 2020)

Key:
JAK1 = JAK1 (Homo sapiens (Human), UniProt P23458); test: Biochemical JAK and Tyk2 kinase assays (LanthaScreen): JAK1; conditions: 1 h pre-incubation, ATP at Km; pIC50 converted to pKi by Cheng-Prusoff
Procedure, shortened: (§1)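 LanthaScreen format using GST-tagged JAK enzymes, 1 h compound preincubation and 1 h ATP-initiated reaction at ambient temperature, in pH 7.5 HEPES buffer with 1% DMSO. Values are Cheng-Prusoff pKi.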

JAK2 = JAK2 (Homo sapiens (Human), UniProt O60674); test: Biochemical JAK and Tyk2 kinase assays (LanthaScreen): JAK2; conditions: 1 h pre-incubation, ATP at Km; pIC50 converted to pKi by Cheng-Prusoff
Procedure, shortened: as §1

JAK3 = JAK3 (Homo sapiens (Human), UniProt P52333); test: Biochemical JAK and Tyk2 kinase assays (LanthaScreen): JAK3; conditions: for Ki: 1 h pre-incubation, ATP at Km, pIC50 converted to pKi by Cheng-Prusoff, read-out: JAK 3 (pKi) (converted); for JAK3 (pKi)-JAK1 (pKi): difference of pKi values, selectivity JAK3 over JAK1
Procedure, shortened: as §1

[1] = test system: IL-2 stimulated pSTAT5 in Tall-1 T cells (JAK3); test: Cellular JAK3 potency assay: inhibition of IL-2 stimulated pSTAT5 in Tall-1 T cells; type: cell-based; conditions: IL-2 300 ng/ml, pSTAT5 AlphaLisa, Tall-1 human T cell line; read-out: Tall-1 (pIC50) (converted)
Procedure, shortened: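 Human Tall-1 T cells (45,000/well) preincubated with compound 1 h at 37 °C, then stimulated with IL-2 (final 300 ng/ml) for 30 min. Lysates read for pSTAT5 (Tyr694/699) by AlphaLISA luminescence. IC50 from signal-versus-concentration curves, reported as pIC50 (mean±SD).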

[2] = Colon and plasma mouse pharmacokinetics; type: in vivo; conditions: mouse; ratio of colon AUC to plasma AUC; male Balb/c mice, 10 mg/kg PO
Experimental: Assay 6: Colon and Plasma Mouse Pharmacokinetics
6 male Balb/c mice were administered 10 mg/kg of compound in 1% HPMC+0.1% Tween-80 by PO administration. At 0.5, 2 and 6 hours after dose administration, animals were anesthetized, and terminal blood samples were collected by cardiac puncture, followed by collection of colon contents and colon tissue.
Blood samples were collected into K2EDTA and stored on wet ice until processed to plasma by centrifugation (12,000 rpm at 4° C.). Plasma samples were transferred to cluster tubes and placed on dry ice prior to freezer storage. The colon contents from each animal were collected at each terminal blood collection time point. The colon tissues were flushed with saline and patted dry. The colon and colon content tissues were homogenized using sterile water containing 0.1% formic acid 9:1 (water:tissue, v/w). The homogenized tissues and colon contents were transferred to cluster tubes and placed on dry ice prior to freezer storage. All samples were analyzed using LC/MS/MS against analytical standards.
The composite pharmacokinetic parameters of the compounds were determined by non-compartmental analysis using Phoenix WinNonlin Version 6 (Certara, St. Louis, Mo.) and using mean values from 2 animals/time point. For plasma concentrations below the quantification limit (BQL), the lowest concentration measurable or the BLOQ (below limit of quantification) was used.
A colon to plasma ratio was determined as the ratio of the colon AUC to the plasma AUC.

JAK3, sequence (P52333 whole entry): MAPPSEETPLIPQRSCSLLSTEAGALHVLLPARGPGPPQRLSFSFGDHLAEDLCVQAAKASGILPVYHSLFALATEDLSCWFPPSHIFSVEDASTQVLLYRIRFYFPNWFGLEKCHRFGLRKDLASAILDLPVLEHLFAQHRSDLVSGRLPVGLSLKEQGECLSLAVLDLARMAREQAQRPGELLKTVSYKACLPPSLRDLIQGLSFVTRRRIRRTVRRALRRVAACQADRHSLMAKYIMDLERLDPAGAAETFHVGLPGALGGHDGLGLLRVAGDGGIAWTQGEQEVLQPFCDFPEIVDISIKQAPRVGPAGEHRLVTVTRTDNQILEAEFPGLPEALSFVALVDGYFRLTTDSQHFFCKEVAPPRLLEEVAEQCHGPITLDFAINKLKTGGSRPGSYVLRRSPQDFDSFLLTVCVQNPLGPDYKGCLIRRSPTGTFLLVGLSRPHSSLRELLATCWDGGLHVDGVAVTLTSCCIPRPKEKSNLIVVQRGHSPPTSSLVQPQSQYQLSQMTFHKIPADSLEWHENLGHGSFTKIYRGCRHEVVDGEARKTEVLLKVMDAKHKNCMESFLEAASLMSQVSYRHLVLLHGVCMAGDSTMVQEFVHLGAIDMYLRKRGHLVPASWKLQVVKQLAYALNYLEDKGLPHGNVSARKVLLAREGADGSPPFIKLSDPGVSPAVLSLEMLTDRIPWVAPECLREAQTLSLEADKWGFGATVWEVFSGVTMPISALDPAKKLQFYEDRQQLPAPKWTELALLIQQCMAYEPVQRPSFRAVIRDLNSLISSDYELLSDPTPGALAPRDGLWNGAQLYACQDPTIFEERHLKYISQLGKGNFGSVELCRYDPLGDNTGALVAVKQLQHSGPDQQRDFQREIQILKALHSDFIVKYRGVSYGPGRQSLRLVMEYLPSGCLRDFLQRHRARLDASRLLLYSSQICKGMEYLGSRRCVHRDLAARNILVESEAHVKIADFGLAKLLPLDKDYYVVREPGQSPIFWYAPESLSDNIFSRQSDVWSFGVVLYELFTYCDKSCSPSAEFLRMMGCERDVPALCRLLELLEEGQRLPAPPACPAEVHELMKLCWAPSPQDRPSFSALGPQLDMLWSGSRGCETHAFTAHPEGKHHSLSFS
JAK1, sequence (P23458 whole entry): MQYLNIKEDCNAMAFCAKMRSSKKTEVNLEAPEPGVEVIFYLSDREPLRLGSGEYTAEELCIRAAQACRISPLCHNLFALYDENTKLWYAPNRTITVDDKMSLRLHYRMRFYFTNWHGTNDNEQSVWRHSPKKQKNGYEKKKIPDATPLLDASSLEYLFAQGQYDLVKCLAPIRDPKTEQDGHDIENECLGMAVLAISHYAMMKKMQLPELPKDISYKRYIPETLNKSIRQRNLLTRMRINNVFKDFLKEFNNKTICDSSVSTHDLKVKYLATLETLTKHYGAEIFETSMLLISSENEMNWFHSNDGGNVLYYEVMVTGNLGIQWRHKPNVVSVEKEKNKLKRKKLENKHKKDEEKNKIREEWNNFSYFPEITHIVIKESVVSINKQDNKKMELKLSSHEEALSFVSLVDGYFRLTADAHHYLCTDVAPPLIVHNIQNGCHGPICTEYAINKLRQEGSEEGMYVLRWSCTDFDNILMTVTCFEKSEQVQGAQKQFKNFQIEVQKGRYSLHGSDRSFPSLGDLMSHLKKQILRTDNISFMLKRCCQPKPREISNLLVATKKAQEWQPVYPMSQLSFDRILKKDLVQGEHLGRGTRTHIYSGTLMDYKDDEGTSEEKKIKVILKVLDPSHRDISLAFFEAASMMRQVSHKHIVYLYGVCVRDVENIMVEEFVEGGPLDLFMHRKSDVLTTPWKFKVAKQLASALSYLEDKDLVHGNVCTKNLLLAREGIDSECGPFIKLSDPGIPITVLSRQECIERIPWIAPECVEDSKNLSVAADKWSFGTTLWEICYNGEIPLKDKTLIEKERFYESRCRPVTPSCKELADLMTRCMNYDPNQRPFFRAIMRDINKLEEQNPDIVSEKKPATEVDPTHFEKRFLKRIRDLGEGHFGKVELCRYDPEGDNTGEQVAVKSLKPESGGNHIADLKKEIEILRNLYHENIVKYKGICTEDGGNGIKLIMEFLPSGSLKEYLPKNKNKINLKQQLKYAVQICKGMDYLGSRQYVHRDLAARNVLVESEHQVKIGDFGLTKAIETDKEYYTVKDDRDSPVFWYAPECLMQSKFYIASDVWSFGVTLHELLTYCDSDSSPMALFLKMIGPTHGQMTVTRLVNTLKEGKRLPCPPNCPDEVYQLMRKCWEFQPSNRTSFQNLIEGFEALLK
JAK2, sequence (O60674 whole entry): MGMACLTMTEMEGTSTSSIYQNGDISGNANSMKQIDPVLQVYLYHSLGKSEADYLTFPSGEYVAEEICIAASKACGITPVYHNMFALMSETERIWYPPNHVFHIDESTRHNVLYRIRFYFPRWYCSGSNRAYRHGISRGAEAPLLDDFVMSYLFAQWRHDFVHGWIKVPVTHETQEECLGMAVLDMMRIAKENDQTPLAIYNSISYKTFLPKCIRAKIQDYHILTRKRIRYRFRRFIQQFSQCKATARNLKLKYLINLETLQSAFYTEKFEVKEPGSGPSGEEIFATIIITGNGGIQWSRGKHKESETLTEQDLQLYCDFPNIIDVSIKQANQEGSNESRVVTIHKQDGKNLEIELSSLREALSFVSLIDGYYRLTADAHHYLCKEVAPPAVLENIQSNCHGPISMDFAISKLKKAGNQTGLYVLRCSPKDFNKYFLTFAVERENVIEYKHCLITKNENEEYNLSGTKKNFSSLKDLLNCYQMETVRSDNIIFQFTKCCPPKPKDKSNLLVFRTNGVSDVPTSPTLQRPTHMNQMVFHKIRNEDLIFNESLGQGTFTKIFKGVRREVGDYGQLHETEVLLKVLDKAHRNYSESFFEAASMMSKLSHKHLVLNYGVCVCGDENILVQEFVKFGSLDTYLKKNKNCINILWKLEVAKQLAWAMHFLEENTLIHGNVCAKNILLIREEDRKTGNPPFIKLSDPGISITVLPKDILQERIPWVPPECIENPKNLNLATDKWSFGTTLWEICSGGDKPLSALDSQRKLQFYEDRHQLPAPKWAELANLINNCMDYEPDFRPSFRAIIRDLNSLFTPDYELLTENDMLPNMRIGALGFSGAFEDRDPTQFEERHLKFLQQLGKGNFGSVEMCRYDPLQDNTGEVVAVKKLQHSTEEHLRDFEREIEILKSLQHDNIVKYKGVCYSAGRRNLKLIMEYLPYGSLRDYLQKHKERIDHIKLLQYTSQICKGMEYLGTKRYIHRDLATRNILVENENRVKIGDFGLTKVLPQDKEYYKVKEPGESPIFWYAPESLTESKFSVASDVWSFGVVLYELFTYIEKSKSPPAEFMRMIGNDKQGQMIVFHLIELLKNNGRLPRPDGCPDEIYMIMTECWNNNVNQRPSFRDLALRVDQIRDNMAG

| SMILES | JAK 1 (pKi) (JAK1) | JAK 2 (pKi) (JAK2) | Ki (JAK3) | JAK3 (pKi)-JAK1 (pKi) (JAK3) | IC50 [1] | Kp [2] |
| --- | --- | --- | --- | --- | --- | --- |
| C=CC(=O)N1CC(COc2cc(-c3cc(F)c(O)cc3CC)cn3cncc23)C1 [Example 13, 1-(3-(((6-(2-ethyl-5-fluoro-4-hydroxyphenyl)imidazo[1,5-a]pyridin-8-yl)oxy)methyl)azetidin-1-yl)prop-2-en-1-one] | E (E represents a pKi value of 7 or below (Ki of 100 nM or above)) | E (E represents a pKi value of 7 or below (Ki of 100 nM or above)) | 0.1 to 1 nM | A (A represents a value of 3 or above) | ≤ 31.6 nM | > 200 |
| C=CC(=O)N1CC(COc2cc(-c3ccc(O)c(Cl)c3)cn3cncc23)C1 [Example 12, 1-(3-(((6-(3-chloro-4-hydroxyphenyl)imidazo[1,5-a]pyridin-8-yl)oxy)methyl)azetidin-1-yl)prop-2-en-1-one] | E (E represents a pKi value of 7 or below (Ki of 100 nM or above)) | E (E represents a pKi value of 7 or below (Ki of 100 nM or above)) | 0.1 to 1 nM | A (A represents a value of 3 or above) | 31.6 to 200 nM | > 200 |
